Reference: the supplement of paper PMC10307832

Legend:
Assay in all cases: relative viability (nuclei count vs DMSO), 5 days (fraction); higher = more cells survive
[1] = compound: CC1=CSC(=NC2CCCCC2)N1/N=C/C3=C(C(=C(C=C3)O)O)O [MIM1]
In short: (§1)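 Following overnight incubation at 37 °C, lung cancer cell lines in 1536-well plates were pinned with five library-drug doses (not always all listed) in √10 steps on vehicle-anchored plates. The cells then spent 5 days without medium change before a combined fix, permeabilisation and Hoechst stain, 4× imaging and MetaXpress nuclear counts. Viability is the treated-to-vehicle ratio of nuclei, taken as the median across plates. Only plates with control CV below 25% and at least one doubling passed.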

[2] = compound: CCNC(=O)c1noc(-c2cc(C(C)C)c(O)cc2O)c1-c1ccc(CN2CCOCC2)cc1 [Luminespib]
In short: as §1

[3] = compound: CN1CCN(CCOc2cc(OC3CCOCC3)c3c(Nc4c(Cl)ccc5c4OCO5)ncnc3c2)CC1 [Saracatinib]
In short: as §1

[4] = compound: Cc1cn(-c2cc(NC(=O)c3ccc(C)c(Nc4nccc(-c5cccnc5)n4)c3)cc(C(F)(F)F)c2)cn1 [Nilotinib]
In short: as §1

[5] = compound: Nc1cccc2c1CN(C1CCC(=O)NC1=O)C2=O [Lenalidomide]
In short: as §1

Cell Line	relative viability ([1]; 0.2 µM)	relative viability ([1]; 0.6325 µM)	relative viability ([1]; 2 µM)	relative viability ([1]; 6.325 µM)	relative viability ([1]; 20 µM)	relative viability ([2]; 0.002 µM)	relative viability ([2]; 0.006325 µM)	relative viability ([2]; 0.01 µM, anchor plate)	relative viability ([2]; 0.02 µM)	relative viability ([2]; 0.06325 µM)	relative viability ([2]; 0.2 µM)	relative viability ([3]; 0.02 µM)	relative viability ([3]; 0.2 µM)	relative viability ([3]; 0.6325 µM)	relative viability ([3]; 2 µM)	relative viability ([4]; 0.001 µM)	relative viability ([4]; 0.003162 µM)	relative viability ([4]; 0.01 µM)	relative viability ([4]; 0.03162 µM)	relative viability ([4]; 0.1 µM)	relative viability ([5]; 0.253 µM)	relative viability ([5]; 0.8 µM)	relative viability ([5]; 2.53 µM)	relative viability ([5]; 8 µM)
NCI-H3122	0.979	1.04	1.01	0.551	0.257	1.05	0.958	0.0888	0.627	0.507	0.117	0.969	0.717	0.845	0.803	1.03	1.21	1.23	0.971	0.956	0.999	1.04	1.01	1.06
PC-3 [JPC-3]	1.05	1.04	0.988	0.874	0.439	1.01	0.915	0.669	0.982	0.961	0.281	1.02	0.945	0.766	0.541	1.03	1.07	1.11	1	0.656	1.03	0.899	1.13	1.08
PC-14	0.959	1.01	0.836	0.807	0.325	1.02	0.933	0.164	0.572	0.0917	0.0993	1.01	0.675	0.453	0.234	0.944	1.14	1.26	0.879	0.643	1.01	1.02	1.12	1.1
RERF-LC-KJ	0.932	0.977	0.823	0.574	0.271	0.979	0.994	1.24	0.844	0.314	0.234	1.1	0.979	1.02	0.981	0.932	1.1	1.12	0.868	0.81	1.06	0.947	1.08	0.943
SK-LU-1	1.05	1.08	1.12	0.934	0.617	1.09	0.777	0.202	0.644	0.186	0.192	1.03	0.802	0.707	0.53	0.932	0.927	1.24	0.718	0.894	0.963	1.03	1.23	0.903
SK-MES-1	1.02	0.986	0.996	0.766	0.507	0.986	0.931	0.831	0.903	0.171	0.145	1	0.894	0.817	0.579	0.994	1.13	1.26	0.924	0.877	0.988	0.995	1.06	0.936
